# Test system: 282377-053-R-J1-PDC complex spheroid viability
# Assay: Anticancer human tumor 282377-053-R-J1-PDC patient-derived colon adenocarcinoma cell line growth inhibition [RAS]
# Details: for IC50: curve of first compound; for viability, T/C: stronger effect = lower value
# Summary of the method: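 Multi-cell-type spheroids: tumor cells plus HUVEC endothelial cells and mesenchymal stem cells. RAS-pathway inhibitors were combined with targeted agents, each dosed in half-log steps down from clinical Cmax, or from 10 microM when Cmax was unknown.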
# [1] = second compound 0.000949 µM, first compound 0.000949 µM
# [2] = second compound 0.000949 µM, first compound 0.003 µM
# [3] = second compound 0.000949 µM, first compound 0.00949 µM
# [4] = second compound 0.000949 µM, first compound 0.03 µM
# [5] = second compound 0.000949 µM, first compound 0.0949 µM
# [6] = second compound 0.000949 µM, first compound 0.3 µM
# [7] = second compound 0.003 µM, first compound 0.000949 µM
# [8] = second compound 0.003 µM, first compound 0.003 µM
# [9] = second compound 0.003 µM, first compound 0.00949 µM
# [10] = second compound 0.003 µM, first compound 0.03 µM
# [11] = second compound 0.003 µM, first compound 0.0949 µM
# [12] = second compound 0.003 µM, first compound 0.3 µM
# [13] = second compound 0.00949 µM, first compound 0.000949 µM
# [14] = second compound 0.00949 µM, first compound 0.003 µM
# [15] = second compound 0.00949 µM, first compound 0.00949 µM
# [16] = second compound 0.00949 µM, first compound 0.03 µM
# [17] = second compound 0.00949 µM, first compound 0.0949 µM
# [18] = second compound 0.00949 µM, first compound 0.3 µM
# [19] = second compound 0.03 µM, first compound 0.000949 µM
# [20] = second compound 0.03 µM, first compound 0.003 µM
# [21] = second compound 0.03 µM, first compound 0.00949 µM
# [22] = second compound 0.03 µM, first compound 0.03 µM
# [23] = second compound 0.03 µM, first compound 0.0949 µM
# [24] = second compound 0.03 µM, first compound 0.3 µM
# [25] = second compound 0.0949 µM, first compound 0.000949 µM
# [26] = second compound 0.0949 µM, first compound 0.003 µM
# [27] = second compound 0.0949 µM, first compound 0.00949 µM
# [28] = second compound 0.0949 µM, first compound 0.03 µM
# [29] = second compound 0.0949 µM, first compound 0.0949 µM
# [30] = second compound 0.0949 µM, first compound 0.3 µM
# [31] = second compound 0.3 µM, first compound 0.000949 µM
# [32] = second compound 0.3 µM, first compound 0.003 µM
# [33] = second compound 0.3 µM, first compound 0.00949 µM
# [34] = second compound 0.3 µM, first compound 0.03 µM
# [35] = second compound 0.3 µM, first compound 0.0949 µM
# [36] = second compound 0.3 µM, first compound 0.3 µM
# 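Note: spheroids exposed to agents for seven days before readout.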
# 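Throughout, for viability, T/C: luminescence viability as percent of DMSO vehicle control wells.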
smiles,measurement,setting,value
C=CC(=O)N1CCN(c2nc(OCC3CCCN3C)nc3c(F)c(-c4nc(N)cc(C)c4C(F)(F)F)c(Cl)cc23)C(C)C1 (stereo unspecified) + CCn1c(-c2cccnc2C(C)OC)c2c3cc(ccc31)N1CCOC(CC(NC(=O)C(C(C)C)N(C)C(=O)C3(F)CCN(C(=O)C#CC(C)(C)N(C)C)CC3)C(=O)N3CCCC(N3)C(=O)OCC(C)(C)C2)C1,IC50,second compound 0.000949 µM,> 1 µM
same,IC50,second compound 0.003 µM,> 1 µM
same,IC50,second compound 0.00949 µM,> 1 µM
same,IC50,second compound 0.03 µM,> 1 µM
same,IC50,second compound 0.0949 µM,> 1 µM
same,IC50,second compound 0.3 µM,> 1 µM
same,"viability, T/C","second compound 0.000949 µM, first compound 0.00316 µM",90.6%
same,"viability, T/C","second compound 0.000949 µM, first compound 0.01 µM",110%
same,"viability, T/C","second compound 0.000949 µM, first compound 0.0316 µM",109%
same,"viability, T/C","second compound 0.000949 µM, first compound 0.1 µM",92.1%
same,"viability, T/C","second compound 0.000949 µM, first compound 0.316 µM",98%
same,"viability, T/C","second compound 0.000949 µM, first compound 1 µM",87.1%
same,"viability, T/C","second compound 0.003 µM, first compound 0.00316 µM",105%
same,"viability, T/C","second compound 0.003 µM, first compound 0.01 µM",131%
same,"viability, T/C","second compound 0.003 µM, first compound 0.0316 µM",86.9%
same,"viability, T/C","second compound 0.003 µM, first compound 0.1 µM",101%
same,"viability, T/C","second compound 0.003 µM, first compound 0.316 µM",81.2%
same,"viability, T/C","second compound 0.003 µM, first compound 1 µM",85.3%
same,"viability, T/C","second compound 0.00949 µM, first compound 0.00316 µM",96.2%
same,"viability, T/C","second compound 0.00949 µM, first compound 0.01 µM",92.7%
same,"viability, T/C","second compound 0.00949 µM, first compound 0.0316 µM",83.6%
same,"viability, T/C","second compound 0.00949 µM, first compound 0.1 µM",88.7%
same,"viability, T/C","second compound 0.00949 µM, first compound 0.316 µM",81.5%
same,"viability, T/C","second compound 0.00949 µM, first compound 1 µM",82.8%
same,"viability, T/C","second compound 0.03 µM, first compound 0.00316 µM",92.9%
same,"viability, T/C","second compound 0.03 µM, first compound 0.01 µM",97.5%
same,"viability, T/C","second compound 0.03 µM, first compound 0.0316 µM",86.2%
same,"viability, T/C","second compound 0.03 µM, first compound 0.1 µM",112%
same,"viability, T/C","second compound 0.03 µM, first compound 0.316 µM",89.9%
same,"viability, T/C","second compound 0.03 µM, first compound 1 µM",93.8%
same,"viability, T/C","second compound 0.0949 µM, first compound 0.00316 µM",90.5%
same,"viability, T/C","second compound 0.0949 µM, first compound 0.01 µM",104%
same,"viability, T/C","second compound 0.0949 µM, first compound 0.0316 µM",115%
same,"viability, T/C","second compound 0.0949 µM, first compound 0.1 µM",109%
same,"viability, T/C","second compound 0.0949 µM, first compound 0.316 µM",109%
same,"viability, T/C","second compound 0.0949 µM, first compound 1 µM",96.3%
same,"viability, T/C","second compound 0.3 µM, first compound 0.00316 µM",90.1%
same,"viability, T/C","second compound 0.3 µM, first compound 0.01 µM",92.1%
same,"viability, T/C","second compound 0.3 µM, first compound 0.0316 µM",97.5%
same,"viability, T/C","second compound 0.3 µM, first compound 0.1 µM",93.3%
same,"viability, T/C","second compound 0.3 µM, first compound 0.316 µM",113%
same,"viability, T/C","second compound 0.3 µM, first compound 1 µM",98.2%
CC1(C)CCC(Nc2ncc(C(F)(F)F)c(-c3c[nH]c4c(P(C)(C)=O)c(C#N)ccc34)n2)CN1 (stereo unspecified) + CCn1c(-c2cccnc2C(C)OC)c2c3cc(ccc31)N1CCOC(CC(NC(=O)C(C(C)C)N(C)C(=O)C3(F)CCN(C(=O)C#CC(C)(C)N(C)C)CC3)C(=O)N3CCCC(N3)C(=O)OCC(C)(C)C2)C1,IC50,second compound 0.000949 µM,> 0.3 µM
same,IC50,second compound 0.003 µM,> 0.3 µM
same,IC50,second compound 0.00949 µM,> 0.3 µM
same,IC50,second compound 0.03 µM,> 0.3 µM
same,IC50,second compound 0.0949 µM,> 0.3 µM
same,IC50,second compound 0.3 µM,> 0.3 µM
same,"viability, T/C",[1],83.9%
same,"viability, T/C",[2],124%
same,"viability, T/C",[3],115%
same,"viability, T/C",[4],90%
same,"viability, T/C",[5],104%
same,"viability, T/C",[6],75.9%
same,"viability, T/C",[7],94.1%
same,"viability, T/C",[8],112%
same,"viability, T/C",[9],140%
same,"viability, T/C",[10],88.6%
same,"viability, T/C",[11],89.5%
same,"viability, T/C",[12],89.3%
same,"viability, T/C",[13],102%
same,"viability, T/C",[14],105%
same,"viability, T/C",[15],134%
same,"viability, T/C",[16],97%
same,"viability, T/C",[17],80.8%
same,"viability, T/C",[18],92.9%
same,"viability, T/C",[19],89.3%
same,"viability, T/C",[20],118%
same,"viability, T/C",[21],98.2%
same,"viability, T/C",[22],96.3%
same,"viability, T/C",[23],91.2%
same,"viability, T/C",[24],96.9%
same,"viability, T/C",[25],84.5%
same,"viability, T/C",[26],135%
same,"viability, T/C",[27],131%
same,"viability, T/C",[28],77%
same,"viability, T/C",[29],75.1%
same,"viability, T/C",[30],67.9%
same,"viability, T/C",[31],92.6%
same,"viability, T/C",[32],107%
same,"viability, T/C",[33],110%
same,"viability, T/C",[34],84.5%
same,"viability, T/C",[35],56.9%
same,"viability, T/C",[36],53.6%
CCc1c2c(nc3ccc(O)cc13)-c1cc3c(c(=O)n1C2)COC(=O)[C@]3(O)CC + CCn1c(-c2cccnc2C(C)OC)c2c3cc(ccc31)N1CCOC(CC(NC(=O)C(C(C)C)N(C)C(=O)C3(F)CCN(C(=O)C#CC(C)(C)N(C)C)CC3)C(=O)N3CCCC(N3)C(=O)OCC(C)(C)C2)C1,IC50,second compound 0.000949 µM,> 0.3 µM
same,IC50,second compound 0.003 µM,> 0.3 µM
same,IC50,second compound 0.00949 µM,> 0.3 µM
same,IC50,second compound 0.03 µM,> 0.3 µM
same,IC50,second compound 0.0949 µM,> 0.3 µM
same,IC50,second compound 0.3 µM,0.182 µM
same,"viability, T/C",[1],133%
same,"viability, T/C",[2],105%
same,"viability, T/C",[3],161%
same,"viability, T/C",[4],108%
same,"viability, T/C",[5],95.5%
same,"viability, T/C",[6],90.6%
same,"viability, T/C",[7],111%
same,"viability, T/C",[8],125%
same,"viability, T/C",[9],131%
same,"viability, T/C",[10],99.1%
same,"viability, T/C",[11],122%
same,"viability, T/C",[12],98.8%
same,"viability, T/C",[13],129%
same,"viability, T/C",[14],110%
same,"viability, T/C",[15],142%
same,"viability, T/C",[16],115%
same,"viability, T/C",[17],98%
same,"viability, T/C",[18],85.1%
same,"viability, T/C",[19],95%
same,"viability, T/C",[20],115%
same,"viability, T/C",[21],146%
same,"viability, T/C",[22],139%
same,"viability, T/C",[23],110%
same,"viability, T/C",[24],94.4%
same,"viability, T/C",[25],119%
same,"viability, T/C",[26],143%
same,"viability, T/C",[27],163%
same,"viability, T/C",[28],136%
same,"viability, T/C",[29],110%
same,"viability, T/C",[30],82.4%
same,"viability, T/C",[31],96.7%
same,"viability, T/C",[32],135%
same,"viability, T/C",[33],149%
same,"viability, T/C",[34],117%
same,"viability, T/C",[35],69.8%
same,"viability, T/C",[36],35%
